Test results reported in patent publication US20230032473A1, “NAD(H) NANOPARTICLES AND METHODS OF USE” (Wisconsin Alumni Research Foundation, priority 2021, published 2023).

How the values were obtained:
LPS-stimulated BMDM = assay: Pro-inflammatory cytokine levels by ELISA in LPS-stimulated BMDM; type: cell-based, murine; details: LPS 100 ng/mL, 10 μM NAD(H) equivalent, 12 h
From the text: Measurement of inflammation related cytokine levels. […] Twelve hours after the treatment, the cell culture media were collected to analyze the cytokine production by ELISA kits supplied by R&D Systems according to the manufacturer's instructions. Data were collected by monitoring the difference between the absorbance at 450 nm and 570 nm using the Microplate Reader.

[1] = system: CLP-induced sepsis with P. aeruginosa secondary infection; assay: Cecal ligation and puncture (CLP) and P. aeruginosa secondary infection model; type: in vivo, mice
From the text: Cecal ligation and puncture (CLP) and P. aeruginosa secondary infection model. Mice were anesthetized with isoflurane. Thereafter, the abdominal cavity was opened with a midline incision to expose the cecum. The distal 50% of the cecum was ligated with a 6-0 silk suture and perforated with a 19-gauge needle twice. Subsequently, a small amount of feces was squeezed out and spread around the cecum. The cecum was relocated into the peritoneal cavity, and the laparotomy site was closed, followed by subcutaneous injection of 1 mL resuscitative prewarmed sterile saline (Dawulieti, J. et al. Treatment of severe sepsis with nanoparticulate cell-free DNA scavengers. Science advances 6, eaay7148 (2020)). This level of injury was utilized to create a prolonged infection that impaired immune system and induced approximate 30% mortality. Two injections of free NAD^+ (20 mg/kg per injection), LP-CaP, or NAD^+-LP-CaP (an equivalent dose of NAD^+20 mg/kg per injection) were given through tail vein 6 h and 24 h after the surgery. […] Mice survival and body weight were recorded over time and presented using Kaplan—Meier curves (n=14). […] The CLP mice were monitored twice daily and their conditions were evaluated using a sepsis scoring sheet. […]

## NC(=O)C1=CN([C@@H]2O[C@H](COP(=O)([O-])OP(=O)([O-])OC[C@H]3O[C@@H](n4cnc5c(N)ncnc54)[C@H](O)[C@@H]3O)[C@@H](O)[C@H]2O)C=CC1.[Na+].[Na+] [NADH, β-Nicotinamide adenine dinucleotide, reduced disodium salt]
LPS-stimulated BMDM
  production of IL-6: did not affect
  production of TNF-α: did not affect

## NC(=O)C1=CN([C@@H]2O[C@H](COP(=O)(O)OP(=O)(O)OC[C@H]3O[C@@H](n4cnc5c(N)ncnc54)[C@H](O)[C@@H]3O)[C@@H](O)[C@H]2O)C=CC1 [free NAD^+, β-Nicotinamide adenine dinucleotide]
LPS-stimulated BMDM
  production of IL-6: did not affect
  production of TNF-α: did not affect
[1]
  survival rate: did not improve the survival rate
